Experimental data: the NIST ThermoML archive (doi:10.1016/j.jct.2006.08.009)
Numbers after ± are expanded uncertainties.

Experiment: mn = molality of the nth substance listed, in mol/kg
Conditions: 350 kPa, Liquid; for apparent molar heat capacity: Extra sensitive DSC

OC[C@@H](O)[C@@H](O)CO [meso-1,2,3,4-butanetetrol] + O
Conditions	apparent molar heat capacity [J/K/mol]	mass density [kg/m3]
278.15 K, m1 = 0.0201	261 ± 88	1000.64 ± 0.17
278.15 K, m1 = 0.05	279 ± 35	1001.78 ± 0.17
278.15 K, m1 = 0.0999	275.3 ± 18	1003.47 ± 0.17
278.15 K, m1 = 0.2501	273 ± 8.1	1009.14 ± 0.19
278.15 K, m1 = 0.4998	272.1 ± 5.4	1017.67 ± 0.2
278.15 K, m1 = 1	270.3 ± 4.2	1034.19 ± 0.24
278.15 K, m1 = 2.002	264 ± 3.7	1062.98 ± 0.3
278.15 K, m1 = 3.003	267.2 ± 3.5	1087.04 ± 0.35
283.15 K, m1 = 0.0201	273 ± 86	1000.38 ± 0.17
283.15 K, m1 = 0.05	290 ± 35	1001.54 ± 0.17
283.15 K, m1 = 0.0999	287.2 ± 18	1003.19 ± 0.17
283.15 K, m1 = 0.2501	285.1 ± 7.8	1008.79 ± 0.18
283.15 K, m1 = 0.4998	284.1 ± 4.8	1017.48 ± 0.2
283.15 K, m1 = 1	282.7 ± 3.6	1033.48 ± 0.24
283.15 K, m1 = 2.002	277.2 ± 3	1061.96 ± 0.3
283.15 K, m1 = 3.003	279.1 ± 2.7	1085.8 ± 0.35
288.15 K, m1 = 0.0201	282 ± 84	999.84 ± 0.17
288.15 K, m1 = 0.05	300 ± 33	1000.96 ± 0.17
288.15 K, m1 = 0.0999	296.3 ± 18	1002.66 ± 0.17
288.15 K, m1 = 0.2501	294.4 ± 7.6	1008.13 ± 0.18
288.15 K, m1 = 0.4998	293.4 ± 4.7	1016.68 ± 0.2
288.15 K, m1 = 1	291.9 ± 3.5	1032.49 ± 0.23
288.15 K, m1 = 2.002	286.3 ± 2.8	1060.61 ± 0.29
288.15 K, m1 = 3.003	288 ± 2.5	1084.24 ± 0.34
293.15 K, m1 = 0.0201	290 ± 82	–
293.15 K, m1 = 0.05	307 ± 33	–
293.15 K, m1 = 0.0999	303.8 ± 17	–
293.15 K, m1 = 0.2501	302.3 ± 7.5	–
293.15 K, m1 = 0.4998	301.3 ± 4.5	–
293.15 K, m1 = 1	299.9 ± 3.3	–
293.15 K, m1 = 2.002	294.2 ± 2.8	–
293.15 K, m1 = 3.003	295.7 ± 2.6	–
298.15 K, m1 = 0.0201	296 ± 82	997.79 ± 0.17
298.15 K, m1 = 0.05	314 ± 33	998.88 ± 0.17
298.15 K, m1 = 0.0999	310.6 ± 17	1000.55 ± 0.17
298.15 K, m1 = 0.2501	309 ± 7.5	1005.86 ± 0.18
298.15 K, m1 = 0.4998	308.1 ± 4.5	1014.19 ± 0.2
298.15 K, m1 = 1	306.6 ± 3.3	1029.78 ± 0.23
298.15 K, m1 = 2.002	300.7 ± 2.6	1057.38 ± 0.29
298.15 K, m1 = 3.003	302.1 ± 2.4	1080.61 ± 0.34
303.15 K, m1 = 0.0201	301 ± 80	–
303.15 K, m1 = 0.05	320 ± 33	–
303.15 K, m1 = 0.0999	316.6 ± 17	–
303.15 K, m1 = 0.2501	315 ± 7.3	–
303.15 K, m1 = 0.4998	314 ± 4.3	–
303.15 K, m1 = 1	312.5 ± 3.1	–
303.15 K, m1 = 2.002	306.6 ± 2.6	–
303.15 K, m1 = 3.003	307.8 ± 2.4	–
308.15 K, m1 = 0.0201	307 ± 80	994.74 ± 0.18
308.15 K, m1 = 0.05	325 ± 32	995.77 ± 0.18
308.15 K, m1 = 0.0999	321.8 ± 16	997.29 ± 0.17
308.15 K, m1 = 0.2501	320.2 ± 7.1	1002.7 ± 0.17
308.15 K, m1 = 0.4998	319.2 ± 4.3	1010.88 ± 0.19
308.15 K, m1 = 1	317.6 ± 3.1	1026.18 ± 0.22
308.15 K, m1 = 2.002	311.8 ± 2.6	1053.42 ± 0.28
308.15 K, m1 = 3.003	312.9 ± 2.4	1076.46 ± 0.33
313.15 K, m1 = 0.0201	311 ± 79	–
313.15 K, m1 = 0.05	330 ± 32	–
313.15 K, m1 = 0.0999	326.5 ± 16	–
313.15 K, m1 = 0.2501	324.8 ± 7.1	–
313.15 K, m1 = 0.4998	323.8 ± 4.3	–
313.15 K, m1 = 1	322.3 ± 3.1	–
313.15 K, m1 = 2.002	316.4 ± 2.4	–
313.15 K, m1 = 3.003	317.4 ± 2.2	–
318.15 K, m1 = 0.0201	315 ± 77	990.96 ± 0.19
318.15 K, m1 = 0.05	334 ± 32	991.95 ± 0.18
318.15 K, m1 = 0.0999	330.6 ± 16	993.44 ± 0.18
318.15 K, m1 = 0.2501	328.9 ± 7	998.78 ± 0.17
318.15 K, m1 = 0.4998	327.9 ± 4.2	–
318.15 K, m1 = 1	326.4 ± 3	–
318.15 K, m1 = 2.002	320.6 ± 2.4	–
318.15 K, m1 = 3.003	321.5 ± 2.2	–
